These results are taken from US20090149504A1, “Novel 5-Substituted Indole Derivatives As Dipeptidyl Peptidase IV (DPP-IV) Inhibitors” (AURIGENE DISCOVERY TECHNOLOGIES LIMITED, priority 2005, published 2009).

pIC50: −log10 of the molar value. Counter-ions that a name gives are not always drawn.

Experiment [1] concerns the target T1, DPP-IV from porcine kidney (Sus scrofa, UniProt P22411).
T1 construct: DPP-IV from porcine kidney (D-7052); purchased Sigma Chemical Company, USA D-7052; host or cells: porcine kidney (tissue-derived)
The experiment can be described thus: In vitro DPP IV inhibition measurement (fluorimetric, Gly-Pro-AMC substrate). It counts as biochemical. To be noted: 50 μM Gly-Pro-AMC, pH 8, 30° C. The procedure: DPP-IV from porcine kidney (D-7052) and the substrate Gly-Pro-7-amido-4-methylcoumar0in hydrobromide (Gly-Pro-AMC, G2761) were obtained from Sigma Chemical Company, USA. Stock solutions of test compounds were prepared in dimethylsulfoxide. DPP IV enzyme cleaves the peptide substrate Gly-Pro-AMC leading to the formation of AMC, which is highly fluorescent. Molecules that inhibit DPP IV prevent or reduce the liberation of AMC from the substrate. The ability of test compounds to inhibit DPP IV was measured fluorimetrically by monitoring the formation of AMC. The assay was carried out in 20 mM Tris.HCl, pH 8 buffer. Test compounds were incubated with the enzyme (5 mU/100 μl) in a 96-well black flat bottom microtiter plate (Greiner bio-one, Germany) for 20 minutes at 30° C. and the reaction was initiated by the addition of 50 μM Gly-Pro-AMC. After 30 minutes incubation at 30° C., the fluorescence at 460 nm was measured (λex=360 nm) in a Spectramax Gemini spectrofluorimeter (Molecular Devices, USA). IC50, the concentration of compound required to inhibit 50% of enzyme activity was determined and the compounds were rated accordingly. For the IC50 determination, non-linear fitting of the dose-response curves were carried out using Kaleidagraph v3 software. LAF237 [Novarti's vildagliptin is a new class of oral antidiabetic agents known as dipeptidyl peptidase IV inhibitors (DPP-IV) inhibitors] was used as the standard inhibitor for the assay.

For experiment [2], the target named is T2, Plasma DPP-IV activity (Rattus norvegicus, UniProt P14740).
T2 construct: from tissue; host or cells: plasma of orally dosed male Wistar rats
T2 sequence (P14740 37-767 limits assumed): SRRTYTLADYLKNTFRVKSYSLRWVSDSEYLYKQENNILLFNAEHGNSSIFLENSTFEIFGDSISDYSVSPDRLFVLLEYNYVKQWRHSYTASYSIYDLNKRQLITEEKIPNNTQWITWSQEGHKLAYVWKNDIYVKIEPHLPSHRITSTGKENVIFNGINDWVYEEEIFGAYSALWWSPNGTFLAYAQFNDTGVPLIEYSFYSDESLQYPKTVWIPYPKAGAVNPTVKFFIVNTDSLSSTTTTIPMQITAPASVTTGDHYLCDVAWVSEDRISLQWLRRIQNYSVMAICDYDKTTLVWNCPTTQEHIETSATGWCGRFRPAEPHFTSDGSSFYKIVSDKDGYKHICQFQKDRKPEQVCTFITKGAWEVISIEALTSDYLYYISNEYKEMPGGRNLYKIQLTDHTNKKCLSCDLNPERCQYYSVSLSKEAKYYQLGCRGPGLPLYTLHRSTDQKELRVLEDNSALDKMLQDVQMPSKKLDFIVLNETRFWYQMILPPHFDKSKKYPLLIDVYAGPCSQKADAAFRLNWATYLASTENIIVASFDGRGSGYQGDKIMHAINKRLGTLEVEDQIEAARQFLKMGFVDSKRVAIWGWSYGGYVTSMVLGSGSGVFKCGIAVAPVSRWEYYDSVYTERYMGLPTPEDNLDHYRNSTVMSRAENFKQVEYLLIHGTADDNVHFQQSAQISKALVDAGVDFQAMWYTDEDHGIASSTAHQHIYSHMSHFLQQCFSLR
The experiment can be described thus: In vivo efficacy study in rat: plasma DPP-IV activity after oral dosing. To be noted: 3 mg/kg oral, male wistar rats, measured at 20 min after glucose challenge. The method, then:
DPP-IV from porcine kidney (D-7052) and the substrate Gly-Pro-7-amido-4-methylcoumar0in hydrobromide (Gly-Pro-AMC, G2761) were obtained from Sigma Chemical Company, USA. Stock solutions of test compounds were prepared in dimethylsulfoxide. DPP IV enzyme cleaves the peptide substrate Gly-Pro-AMC leading to the formation of AMC, which is highly fluorescent. Molecules that inhibit DPP IV prevent or reduce the liberation of AMC from the substrate. The ability of test compounds to inhibit DPP IV was measured fluorimetrically by monitoring the formation of AMC. The assay was carried out in 20 mM Tris.HCl, pH 8 buffer. […] After 30 minutes incubation at 30° C., the fluorescence at 460 nm was measured (λex=360 nm) in a Spectramax Gemini spectrofluorimeter (Molecular Devices, USA). […]
Male wistar rats were divided into groups of 6, fasted for approximately 16-18 hours before the experiment, and dosed orally with 0.3, 1, 3 and 10 mg/kg of the test compounds in carboxymethylcellulose (CMC) or Tween 80. […] Blood samples obtained at various time points from chronic jugular vein catheters/retro orbital bleed were analyzed for plasma glucose and plasma DPP-IV activity. Measurement of Plasma glucose was carried out using Merckotest Glucose kit (GOD-POD method, Merck) in Selectra Clinical Chemistry analyzer, and area under the curve (AUC) for glucose (0-120 min) was calculated. […]

Experiment [3] relates to Male wistar rats. Kind of experiment: In vivo efficacy study in rat: oral glucose tolerance (plasma glucose). To be noted: 3 mg/kg oral, 2 g/kg oral glucose, measured at 20 min after glucose challenge. The procedure: Male wistar rats were divided into groups of 6, fasted for approximately 16-18 hours before the experiment, and dosed orally with 0.3, 1, 3 and 10 mg/kg of the test compounds in carboxymethylcellulose (CMC) or Tween 80. After 30 min of test compound dosing, an oral glucose bolus of 2 g/kg was administered directly into the stomach of the test animals. Blood samples obtained at various time points from chronic jugular vein catheters/retro orbital bleed were analyzed for plasma glucose and plasma DPP-IV activity. Measurement of Plasma glucose was carried out using Merckotest Glucose kit (GOD-POD method, Merck) in Selectra Clinical Chemistry analyzer, and area under the curve (AUC) for glucose (0-120 min) was calculated. Plasma DPP-IV activity was measured as described above (Example-64), using 2 μl plasma for every reaction.

Experiment [4] has as its system Zucker fa/fa fatty rats. Kind of experiment: In vivo efficacy in genetic models: oral glucose challenge in Zucker fa/fa rats. Also noted: species or system rat. The conditions noted are these: 3 mg/kg. The procedure:
(a) Zucker fa/fa rats Zucker fa/fa fatty rats were obtained from IffaCredo, France. The animals were maintained under 12 hour light and dark cycle at 24+/−2° C., given standard laboratory chow (NIN, Hyderabad, India) and water, ad libitum. The test compound (Example-4) was administered at 3 mg/kg dose to overnight fasted animals. The control animals received the vehicle (0.2% tween 80, dosed at 1 ml/kg) orally. Thirty minutes after administration of test compound, 2 g/kg glucose at 5 ml/kg was administered by oral gavage. Blood samples were collected at 0 (prior to compound administration), 7, 20, 40, 60 and 120 min after glucose challenge, for estimation of plasma glucose and insulin levels, and DPP-IV activity. Additional blood samples were collected in chilled EDTA tubes and immediately DPP-IV inhibitor (Linco Research, USA) was added to achieve final concentration of 10 μl/mL of blood to estimate GLP-1 levels. Blood samples were centrifuged and separated plasma samples were stored at −20° C. until analysis. Plasma DPP-IV activity and glucose levels were measured as described above (Example-65). Insulin and GLP-1 levels were measured using ELISA kits, as per manufacturer's procedures (Linco Research, USA). […] There was a 7-fold increase in GLP-1 levels at 7 min and 6-fold increase in insulin levels at 15 min after glucose challenge.

Experiment [5] concerns Male C57BL/KsJ-db/db mice. Kind of experiment: In vivo efficacy in genetic models: oral glucose challenge in db/db mice. To be noted: 3 mg/kg. The method, then: (b) db/db mice Male C57BL/KsJ-db/db mice of 8 to 14 weeks age, having body weight in the range of 35 to 60 grams, bred at Discovery Research, Dr. Reddy's Laboratories, were used in the experiment. The animals were maintained under 12 hour light and dark cycle at 24+/−2° C., given standard laboratory chow (NIN, Hyderabad, India) and water, ad libitum. The test compound (Example-4) was administered at 3 mg/kg dose. The control animals received the vehicle (0.2% Tween 80, dosed at 10 ml/kg) through oral gavage. 30 minutes after administration of test compound, 1.5 g/kg glucose at 10 ml/kg was administered by oral gavage. Blood samples were collected at 0 (prior to compound administration), 15, 30, 60 and 120 min after glucose challenge for estimation of plasma glucose levels, insulin and DPP-IV activity. Blood samples (0, 7, 15 min) from a satellite group of animals were collected in chilled EDTA tubes and immediately DPP-IV inhibitor (Linco Research) was added to achieve final concentration of 10 μl/mL of blood to estimate GLP-1 levels. Blood samples were centrifuged and separated plasma was stored at −20° C. until analysis. Glucose, Insulin and GLP-1 levels, and plasma DPP-IV activity were measured as described above (Example-66). Compound (Example-4) reduced the glucose levels by 58%. There was 16-fold increase in GLP-1 levels at 7 min and 5.4-fold increase in insulin levels at 15 min after glucose challenge.

The mark [6] stands for this setting: at 7 min after glucose challenge.
Where [7] appears, read: at 15 min after glucose challenge.

T1 sequence (P22411 whole entry): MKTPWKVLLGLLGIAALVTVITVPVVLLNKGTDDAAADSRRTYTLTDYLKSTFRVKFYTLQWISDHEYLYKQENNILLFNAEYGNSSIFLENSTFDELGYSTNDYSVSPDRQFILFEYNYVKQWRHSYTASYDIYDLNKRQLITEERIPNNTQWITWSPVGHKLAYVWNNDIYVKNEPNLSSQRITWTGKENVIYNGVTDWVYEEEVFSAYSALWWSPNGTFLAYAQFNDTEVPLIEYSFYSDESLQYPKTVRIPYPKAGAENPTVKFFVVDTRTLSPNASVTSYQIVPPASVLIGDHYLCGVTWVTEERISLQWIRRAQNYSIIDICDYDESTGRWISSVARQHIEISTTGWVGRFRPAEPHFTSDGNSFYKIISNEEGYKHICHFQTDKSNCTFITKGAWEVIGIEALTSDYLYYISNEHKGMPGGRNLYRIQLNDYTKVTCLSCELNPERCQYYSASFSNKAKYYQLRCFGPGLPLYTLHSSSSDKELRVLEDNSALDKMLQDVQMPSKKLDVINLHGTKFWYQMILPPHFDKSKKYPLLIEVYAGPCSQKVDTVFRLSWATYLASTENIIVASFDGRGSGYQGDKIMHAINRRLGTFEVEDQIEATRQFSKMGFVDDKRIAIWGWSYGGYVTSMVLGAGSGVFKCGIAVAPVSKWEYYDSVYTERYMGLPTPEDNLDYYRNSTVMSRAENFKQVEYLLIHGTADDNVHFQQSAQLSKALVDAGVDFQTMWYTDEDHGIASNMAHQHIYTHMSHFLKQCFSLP

`N#Cc1cccnc1Oc1ccc2[nH]cc(C[C@H](N)C(=O)N3C[C@@H](F)C[C@H]3C#N)c2c1` [Example 27, (S,S,S) 2-{3-[2-Amino-3-(2-cyano-4-fluoro-pyrrolidin-1-yl)-3-oxo-propyl]-1H-indol-5-yloxy} nicotinonitrile. Trifluoroacetic acid salt] showed a pIC50 in experiment [1] of 8.05.
On the same count and under the same terms, next, `N#Cc1ccc(Oc2ccc3[nH]cc(C[C@H](N)C(=O)N4C[C@@H](F)C[C@H]4C#N)c3c2)nc1` [Example 30, (S,S,S) 6-{3-[2-Amino-3-(2-cyano-4-fluoro-pyrrolidin-1-yl)-3-oxo-propyl]-1H-indol-5-yloxy}-nicotinonitrile. Trifluoroacetic acid salt]: 8.33.
`N#C[C@@H]1CCCN1C(=O)[C@@H](N)Cc1c[nH]c2ccc(Oc3ccc([N+](=O)[O-])cn3)cc12` [Example 4, Trifluoroacetic acid salt] showed a pIC50 in experiment [1] of 8.88. Besides, in experiment [2], the inhibition at 3 mg/kg is 90%. The “% Glucose reduction” value in experiment [3] is 34%. This compound also gave a reduction in glucose in experiment [4] (2 g/kg oral glucose 30 min after compound) of 55%. Besides, the “increase in GLP-1 levels” value is recorded as 7 fold in experiment [4] (setting [6]) and 16 fold in experiment [5] (setting [6]). The “increase in insulin levels” value in experiment [4] (setting [7]) came out at 6 fold; in experiment [5] (setting [7]), 5.4 fold. In experiment [5] (1.5 g/kg oral glucose 30 min after compound), the “reduced the glucose levels” value was 58%.
As for `N#C[C@@H]1C[C@H](F)CN1C(=O)[C@@H](N)Cc1c[nH]c2ccc(Oc3ccc([N+](=O)[O-])cc3)cc12` [Example 28, Trifluoroacetic acid salt], the pIC50 in experiment [1] was 8.82.
For `N#Cc1ccc(Oc2ccc3[nH]cc(C[C@H](N)C(=O)N4CSC[C@@H]4C#N)c3c2)nc1` [Example 33, (S,S) 6-{3-[2-Amino-3-(4-cyano-thiazolidin-3-yl)-3-oxo-propyl]-1H-indol-5-yloxy}-nicotinonitrile. Trifluoroacetic acid salt], the pIC50 in experiment [1] was 8.46.
Same read-out and setting: next, `N#C[C@H]1CSCN1C(=O)[C@@H](N)Cc1c[nH]c2ccc(Oc3ccc([N+](=O)[O-])cc3)cc12` [Example 34, Trifluoroacetic acid salt]: 8.55; `N#C[C@H]1CSCN1C(=O)[C@@H](N)Cc1c[nH]c2ccc(Oc3ccc([N+](=O)[O-])cn3)cc12` [Example 35, (S,S) 3-{2-Amino-3-[5-(5-nitro-pyridin-2-yloxy)-1H-indol-3-yl]-propionyl}-thiazolidine-4-carbonitrile. Trifluoroacetic acid salt]: 8.43; `N#Cc1cccnc1Oc1ccc2[nH]cc(C[C@H](N)C(=O)N3CSC[C@@H]3C#N)c2c1` [Example 32, (S,S) 2-{3-[2-Amino-3-(4-cyano-thiazolidin-3-yl)-3-oxo-propyl]-1H-indol-5-yloxy}-nicotinonitrile. Trifluoroacetic acid salt]: 8.20.
The same measure, in the same setting: then `N#Cc1ccc(Oc2ccc3[nH]cc(C[C@H](N)C(=O)N4CCC[C@H]4C#N)c3c2)nc1` [Example 6, (S,S) 6-{3-[2-Amino-3-(2-cyano-pyrrolidin-1-yl)-3-oxo-propyl]-1H-indol-5-yloxy}-nicotinonitrile. Trifluoroacetic acid salt], with 8.26.
The compound `N#C[C@@H]1CCCN1C(=O)[C@@H](N)Cc1c[nH]c2ccc(Oc3ccc([N+](=O)[O-])cc3)cc12` [Example 12] gave a pIC50 in experiment [1] of 8.74. This compound yielded an inhibition at 3 mg/kg in experiment [2] of 74%. Besides, the “% Glucose reduction” value in experiment [3] is given as 22%.
